Values quoted from earlier work, collected in patent US20210095288A1, “METHODS OF MODULATING NKX6.3” (SOCIETE DES PRODUITS NESTLE S.A., priority 2018, published 2021).

Test system: NKX6.3
Conditions: effect on NKX6.3 expression; from Davis A P, et al., Comparative Toxicogenomics Database: update 2017

SMILES | Interaction Actions
CCC[CH2][Sn]([CH2]CCC)([CH2]CCC)[O][Sn]([CH2]CCC)([CH2]CCC)[CH2]CCC [bis(tri-n-butyltin)oxide] | Decreases
COC[C@@H]([C@H](O)[C@H](O)C(=O)NCC[C@H](C)c1nc(/C=C/C[C@@H]2O[C@]3(C[C@@H](O)[C@@H]2C)O[C@H]([C@H](C[C@H](O)[C@H](C)[C@H](O)[C@H](C)/C=C(C)/C(C)=C/C=C/C(C)=C\C#N)OC)[C@H](OP(=O)(O)O)C3(C)C)co1)N(C)C [calyculin A] | Decreases
CCCc1cc(=O)[nH]c(=S)[nH]1 [Propylthiouracil] | Decreases
CC(C)(c1ccc(O)cc1)c1ccc(O)cc1 [bisphenol A] | Decreases
CC(=O)Nc1ccc(O)cc1 [Acetaminophen] | Decreases
